This is an account of results in the supplement of paper PMC10307832.

What all share (assay): relative viability (nuclei count vs DMSO), 5 days (fraction); higher = more cells survive
Compound in assay [1]: Cn1c(Nc2ccc(C(F)(F)F)cc2)nc2cc(Oc3ccnc(-c4ncc(C(F)(F)F)[nH]4)c3)ccc21 [RAF265] + CS(=O)(=O)N1CCN(Cc2cc3nc(-c4cccc5[nH]ncc45)nc(N4CCOCC4)c3s2)CC1 [Pictilisib] (partner 1 µM)
In short, it runs like this: (§1)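 Relative viability is defined as nuclei in treated wells over nuclei in vehicle wells. Duplicate plates were run and medians reported. Lung cancer cell lines in 1536-well plates were dosed by pin tool one day after seeding, with one drug or with a fixed anchor-drug dose plus five library-drug doses (not always all listed) in √10 steps, and nuclei were counted after 5 days.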

Compound in assay [2]: Cn1c(Nc2ccc(C(F)(F)F)cc2)nc2cc(Oc3ccnc(-c4ncc(C(F)(F)F)[nH]4)c3)ccc21 [RAF265] + C[C@]1(O)C[C@@H](c2nc(-c3ccc4ccc(-c5ccccc5)nc4c3)c3c(N)nccn32)C1 [Linsitinib] (partner 1 µM)
The procedure, abridged:
as §1

Compound in assay [3]: C1=CC=C2C(=C1)C=CC(=C2SSC3=C(C=CC4=CC=CC=C43)O)O [IPA-3] + Cc1nc(NC(=O)N2CCC[C@H]2C(N)=O)sc1-c1ccnc(C(C)(C)C(F)(F)F)c1 [Alpelisib] (partner 2 µM)
The procedure, abridged: as §1

Compound in assay [4]: C1=CC=C2C(=C1)C=CC(=C2SSC3=C(C=CC4=CC=CC=C43)O)O [IPA-3] + Nc1nc2[nH]cc(CCc3ccc(C(=O)N[C@@H](CCC(=O)O)C(=O)O)cc3)c2c(=O)[nH]1 [Pemetrexed] (partner 0.2 µM)
In short, it runs like this: as §1

On to UMC-11, for which the relative viability is 0.782 in assay [1] (first compound 0.01 µM); 0.747 in assay [1] (first compound 0.03162 µM); 0.88 in assay [1] (first compound 0.1 µM); 0.822 in assay [1] (first compound 0.3162 µM); 0.644 in assay [1] (first compound 1 µM); 1 in assay [2] (first compound 0.01 µM). For the same cell line, the relative viability in assay [2] (first compound 0.03162 µM) came to 0.993; in assay [2] (first compound 0.1 µM), 0.953; in assay [2] (first compound 0.3162 µM) it was 0.986; in assay [2] (first compound 1 µM) it was 0.973; in assay [3] (first compound 0.2 µM) it was 1.22; in assay [3] (first compound 0.6325 µM), 0.962. Moreover, the relative viability is 1.07 in assay [3] (first compound 2 µM); 1.01 in assay [3] (first compound 6.325 µM); 1.07 in assay [3] (first compound 20 µM); 0.869 in assay [4] (first compound 0.2 µM); 0.756 in assay [4] (first compound 0.6325 µM); 0.83 in assay [4] (first compound 2 µM). Besides, the relative viability in assay [4] (first compound 6.325 µM) is 0.769; in assay [4] (first compound 20 µM), 0.943.
